{"source": "ChEMBL document CHEMBL3352687", "about": "“Synthesis of N-glycan units for assessment of substrate structural requirements of N-acetylglucosaminyltransferase III” (Bioorg Med Chem Lett, 2014)", "note": "Active and inactive are the calls of the source. No cut-off for these calls is given here.", "data": [{"test": "Competitive inhibition of human N-terminally His6-tagged N-acetylglucosaminyltransferase 3 expressed in HEK293T cells assessed as GN-GnGnbi-PAs molar ratio level at 100 to 500 uM incubated for 4 hrs using GnGnbi-PA acceptor substrate and UDP-GlcNAc donor substrate by reverse phase HPLC method", "conditions": "HEK-293T", "values": [{"smiles": "CO[C@H]1O[C@H](CO[C@H]2O[C@H](CO)[C@@H](O)[C@H](O)[C@@H]2O[C@@H]2O[C@H](CO)[C@@H](O)[C@H](O)[C@H]2NC(C)=O)[C@@H](O[C@@H]2O[C@H](CO)[C@@H](O)[C@H](O)[C@H]2NC(C)=O)[C@H](O[C@H]2O[C@H](CO)[C@@H](O)[C@H](O)[C@@H]2O[C@@H]2O[C@H](CO)[C@@H](O)[C@H](O)[C@H]2NC(C)=O)[C@@H]1O", "inhibition": "Active"}, {"smiles": "CO[C@H]1O[C@H](CO[C@H]2O[C@H](CO)[C@@H](O)[C@H](O)[C@@H]2O)[C@@H](O[C@@H]2O[C@H](CO)[C@@H](O)[C@H](O)[C@H]2NC(C)=O)[C@H](O[C@H]2O[C@H](CO)[C@@H](O)[C@H](O)[C@@H]2O)[C@@H]1O", "inhibition": "inactive"}, {"smiles": "CO[C@H]1O[C@H](CO[C@H]2O[C@H](CO)[C@@H](O)[C@H](O)[C@@H]2O[C@@H]2O[C@H](CO)[C@@H](O)[C@H](O)[C@H]2NC(C)=O)[C@@H](O)[C@H](O[C@H]2O[C@H](CO)[C@@H](O)[C@H](O)[C@@H]2O[C@@H]2O[C@H](CO)[C@@H](O)[C@H](O)[C@H]2NC(C)=O)[C@@H]1O", "inhibition": "Active"}, {"smiles": "CO[C@H]1O[C@H](CO[C@H]2O[C@H](CO)[C@@H](O)[C@H](O)[C@@H]2O)[C@@H](O)[C@H](O[C@H]2O[C@H](CO)[C@@H](O)[C@H](O)[C@@H]2O)[C@@H]1O", "inhibition": "inactive"}]}]}
